Measurements as given in patent US12358923B2, “Seminaphthofluorophore-selenium probes for thioredoxin reductase” (Portland State University, priority 2019, dated 2025).

What was measured:
TrxR1 from rat liver = molecular target: T1, TrxR1 from rat liver (Rattus norvegicus, UniProt O89049); assay: TrxR1 enzymatic assay and kinetic study (fluorescence increase, NADPH depletion); format: biochemical
T1 construct: from tissue; host or cells: rat liver
T1 sequence (O89049 1-499): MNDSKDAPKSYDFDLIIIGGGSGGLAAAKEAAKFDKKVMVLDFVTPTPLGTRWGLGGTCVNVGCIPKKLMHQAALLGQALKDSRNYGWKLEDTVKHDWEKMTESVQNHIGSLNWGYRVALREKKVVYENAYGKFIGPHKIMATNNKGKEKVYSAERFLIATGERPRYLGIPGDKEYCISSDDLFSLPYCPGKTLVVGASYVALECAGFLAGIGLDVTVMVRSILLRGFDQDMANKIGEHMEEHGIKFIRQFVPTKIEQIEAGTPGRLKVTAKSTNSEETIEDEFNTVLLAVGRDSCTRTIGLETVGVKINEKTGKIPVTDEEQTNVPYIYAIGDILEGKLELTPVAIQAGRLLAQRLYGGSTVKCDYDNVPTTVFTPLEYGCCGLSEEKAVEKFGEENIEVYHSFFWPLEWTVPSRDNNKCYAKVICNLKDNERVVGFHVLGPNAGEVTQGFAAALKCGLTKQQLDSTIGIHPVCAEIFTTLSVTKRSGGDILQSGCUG
Procedure: Enzymatic assays were carried out using TrxR1 from rat liver in the presence of 20 μM probe 1, 10 mM EDTA, 0.2 mg/mL BSA, and 0.24 mM NADPH in phosphate buffer (100 mM, pH 7.4). This solution was pipetted into four different wells in a 96-well plate. 0.03, 0.06 and 0.12 units of TrxR1 were added to different reaction mixtures. Control experiments were set up by omitting either probe 1, NADPH or TrxR1 from the mixtures. After all the reagents had been mixed, the wells were immediately monitored for change in fluorescence (λex=531 nm; λem=580 nm) and NADPH absorbance (λabs,max 340 nm). TrxR1 activity was monitored via fluorescence emission increase of probe 1 (λex=531 nm; λem=580 nm) as well as the depletion of NADPH (λabs=340 nm) upon incubation. Reactions were monitored in black 96-well plates with clear bottoms using a fluorescence plate reader. NADPH and TrxR1 were both required for the conversion of probe 1 to compound 2 and the concomitant turn-on emission (FIG. 2). […] The proposed mechanism for the reaction of probe 1 in the presence of TrxR1 and NADPH is shown in Scheme 7. Nucleophilic attack of the diselenide occurs through the TrxR1 […] residue. The selenolate formed attacks the carbamate carbonyl, and an oxaselenolanone heterocycle and the fluorescent probe 2 are released.
Kinetic studies were carried out for six reaction mixtures with varying amounts (1-20 μM) of probe 1 over 20 min. Reaction mixtures were made with concentrations of: TrxR1 0.12 units, 100 mM phosphate buffer, pH 7.4; 10 mM EDTA, 0.2 mg/mL BSA and 0.24 mM NADPH. 1 was added at different concentrations in the reaction mixture: 20 μM, 10 μM, 5 μM, 3 μM, 1 μM and 0 μM. The reaction was monitored through the change in fluorescence (λex=531 nm; λem=580 nm) and a fluorescence vs time graph was plotted for each substrate concentration (FIG. 3). […] The fluorescence data also was plotted as a reaction rate vs substrate concentration graph (FIG. 4).

[1] = Selectivity against other biological thiols and ions (fluorescence response); format: biochemical; settings: 20 μM probe, 20 minutes; 100 μM Na2S, Na2SO3, Na2SO4, Na2S2O3, Hcy, Cys or 1 mM GSH; phosphate buffer pH 7.4
Procedure: The selectivity of TrxR1 for probe 1 was evaluated against other biological thiols and ions. Probe 1, at a concentration of 20 μM, was incubated for 20 minutes with 0.12 units TrxR1, 100 μM Na2S, 100 μM Na2SO3, 100 μM Na2SO4, 100 μM Na2S2O3, 100 μM homocysteine (Hcy), 100 μM cysteine (Cys), or 1 mM glutathione (GSH) in 100 mM phosphate buffer, pH 7.4; 10 mM EDTA, 0.2 mg/mL BSA and 0.24 mM NADPH.

[2] = Maximum absorbance and emission wavelengths of the seminaphthofluorophore scaffolds; format: physicochemical; settings: seminaphthofluorophore scaffold (without the diselenide moiety/moieties) of the compound; 10% DMSO, 100 mM phosphate buffer, pH 7.4
Procedure: Initial absorbance measurements were performed on a Cary Eclipse™ 50 Bio UV-Vis spectrophotometer. Fluorescence measurements were performed on a Cary Eclipse™ fluorescence spectrophotometer (Agilent Technologies, Santa Clara, CA).

A375 melanoma cell line = assay: MTS cytotoxicity assay (CellTiter 96 Aqueous One Solution); format: cell-based; settings: Homo sapiens, A-375, A375 cells
Procedure: (§1) MTS cytotoxicity assays for probe 1 were carried out using the CellTiter 96® Aqueous One Solution Cell Proliferation Assay (Promega Corporation, Madison, WI), with A375 and SK-MEL-5 melanoma cell lines. The following treatment groups were made:
(§2) The IC50 is the probe concentration required to kill 50% of the cells in the specified time period.

[3] = system: SK-MEL-5 melanoma cell line; assay: as above; format: cell-based; settings: Homo sapiens, SK-MEL-5 cells
Procedure: as §1, §2

[4] = Turn-on response of probe on reduction of the diselenide with dithiothreitol (DTT); settings: 10 μM probe
Procedure: To determine if determine if probe 1 would elicit a turn-on response, dithiothreitol (DTT) was used to reduce the diselenide into the selenolate. DTT is known to reduce both disulfides and diselenides. Excitation and emission spectra were obtained for a 10 μM solution of 1 in 0.3% DMSO, 0.2% NP-40 (nonyl phenoxypolyethoxylethanol), 1 mM EDTA, and 50 mM Tris buffer, pH 7.4, initially without DTT and then with an equimolar amount of DTT (FIG. 1).
To investigate the reactivity and optical responses of probe 1, an aqueous solution of 10 μM probe 1, 10 μM DTT in 0.3% DMSO, 0.2% NP-40, 1 mM EDTA and 50 mM Tris buffer, pH 7.4 was prepared. DTT is a powerful reducing agent for both diselenides and disulfides and might be expected to react with probe 1 by a mechanism similar to the TrxR1 enzyme. […] Excitation at 531 nm afforded emission with a λmax at 580 nm, as expected for the formation of compound 2, which was also monitored by HPLC-MS.

[5] = equimolar DTT, 0.3% DMSO, 0.2% NP-40, 1 mM EDTA, 50 mM Tris buffer, pH 7.4

COc1cccc2ccc3c(c12)Oc1cc(NC(=O)OCC[Se][Se]CCO)ccc1C31OC(=O)c2ccccc21 (stereo not drawn) [Probe 1]
Time at which fluorescence intensity began to plateau (TrxR1 from rat liver; 20 μM probe, 0.12 units TrxR, 0.24 mM NADPH, phosphate buffer pH 7.4, λex 531 nm, λem 580 nm): 20 min
Fluorescence in the absence of NADPH or TrxR (TrxR1 from rat liver; 20 μM probe, control omitting NADPH or TrxR1): no fluorescence was observed
Km (TrxR1 from rat liver; 1-20 μM probe, 0.12 units TrxR1, 0.24 mM NADPH, 100 mM phosphate buffer pH 7.4, 20 min): 15.9 µM
Change in fluorescence with other thiols and ions compared with TrxR1 [1]: None afforded a significant change in fluorescence
λmax, abs (nm) [2]: 531 nm
λmax, em (nm) [2]: 580 nm
IC50 (A375 melanoma cell line; 24 hours): 3530 nM
IC50 (A375 melanoma cell line; 48 hours): 2230 nM
IC50 (A375 melanoma cell line; 72 hours): 2550 nM
IC50 ([3]; 24 hours): 4770 nM
IC50 ([3]; 48 hours): 3100 nM
IC50 ([3]; 72 hours): 2300 nM
Emission λmax after addition of DTT ([4]; 10 μM DTT, Tris buffer pH 7.4, excitation at 531 nm, formation of compound 2): 580 nm
Colour change of solution with DTT [4, 5]: colorless to red
Fluorescence turn-on response with DTT [4, 5]: instantaneous turn-on response
